Experimental data taken from patent publication EP0302824A2 (priority 1987, dated 1989).
Where two headings read alike, the source gives them in different places.

Experiments:
[1] = Solubilization of terbufos in individual and combined surfactant solutions; conditions: for Terbufos Concentration (ppm) Individual Surfactant: maximum 100 ppm terbufos in solution
[2] = Time release of terbufos from coated maize seeds into buffer; assay type: physicochemical
[3] = Solubility of terbufos in water with increasing concentration of surfactant or association polymer
[4] = tested on: corn rootworms; test: Field control of corn rootworms by insecticide/polymer combinations applied to the seed; assay type: in vivo, Diabrotica spp.; conditions: maize G 4733, 0-6 scale, 63 days after planting
[5] = Solubility of terbufos in neat surfactants and PEGs, judged by eye
[6] = Release of terbufos from coated corn cob granules into buffer; assay type: physicochemical
[7] = assay type: physicochemical; conditions: coated maize kernels in 200 ml water, 20°C, 50 rpm
[8] = not given; remark: listed apart in the source
[9] = assay type: physicochemical; conditions: sand column; 50 mm artificial rainfall in 48 hours; 5 g/kg a.i.
[10] = Sw = solubility in water

## CNC(=O)Oc1cccc2c1OC(C)(C)C2 [carbofuran]
1000 ppm Alipal EP110
  Solubility of Carbofuran, ppm: 349 ppm
1000 ppm Ethomeen T/15
  Solubility of Carbofuran, ppm: 436 ppm
1000 ppm Pluronic F68
  Solubility of Carbofuran, ppm: 287 ppm
1000 ppm Triton N101
  Solubility of Carbofuran, ppm: 370 ppm
Ethomeen T/15, 1000 ppm
  increase in solubility in surfactant solution over that in water: 30%
H₂O
  Solubility of Carbofuran, ppm: 330 ppm
Triton (N101), 1000 ppm
  increase in solubility in surfactant solution over that in water: 10%

## CCOP(=S)(OCC)SCSC(C)(C)C [terbufos]
[1]; A2, 1000 ppm
  Terbufos Concentration (ppm) Individual Surfactant: 2.0 ppm
[1]; A2 with C2, 5 ml portions (1000 ppm) of each, maximum 100 ppm
  Terbufos Concentration (ppm) Combination Surfactant With C2: 38 ppm
[1]; A2 with N3, 5 ml portions (1000 ppm) of each, maximum 100 ppm
  Terbufos Concentration (ppm) Combination Surfactant With N3: 13 ppm
[1]; A4, 1000 ppm
  Terbufos Concentration (ppm) Individual Surfactant: 3.4 ppm
[1]; A4 with N3, 5 ml portions (1000 ppm) of each, maximum 100 ppm
  Terbufos Concentration (ppm) Combination Surfactant With N3: 28 ppm
[1]; C2, 1000 ppm
  Terbufos Concentration (ppm) Individual Surfactant: 12 ppm
[1]; C2 with N3, 5 ml portions (1000 ppm) of each, maximum 100 ppm
  Terbufos Concentration (ppm) Combination Surfactant: 64 ppm
[1]; N3, 1000 ppm
  Terbufos Concentration (ppm) Individual Surfactant: 65 ppm
[1]; N7, 1000 ppm
  Terbufos Concentration (ppm) Individual Surfactant: 1.1 ppm
[1]; N7 with C2, 5 ml portions (1000 ppm) of each, maximum 100 ppm
  Terbufos Concentration (ppm) Combination Surfactant With C2: 6.7 ppm
[1]; N7 with N3, 5 ml portions (1000 ppm) of each, maximum 100 ppm
  Terbufos Concentration (ppm) Combination Surfactant With N3: 54 ppm
[1]; N8, 1000 ppm
  Terbufos Concentration (ppm) Individual Surfactant: 1.2 ppm
[1]; N8 with C2, 5 ml portions (1000 ppm) of each, maximum 100 ppm
  Terbufos Concentration (ppm) Combination Surfactant With C2: 39 ppm
[1]; N8 with N3, 5 ml portions (1000 ppm) of each, maximum 100 ppm
  Terbufos Concentration (ppm) Combination Surfactant With N3: 40 ppm
[1]; N10, 1000 ppm
  Terbufos Concentration (ppm) Individual Surfactant: 0.7 ppm
[1]; N10 with C2, 5 ml portions (1000 ppm) of each, maximum 100 ppm
  Terbufos Concentration (ppm) Combination Surfactant With C2: 36 ppm
[1]; N10 with N3, 5 ml portions (1000 ppm) of each, maximum 100 ppm
  Terbufos Concentration (ppm) Combination Surfactant With N3: 38 ppm
[1]; N11, 1000 ppm
  Terbufos Concentration (ppm) Individual Surfactant: 0.5 ppm
[1]; N11 with C2, 5 ml portions (1000 ppm) of each, maximum 100 ppm
  Terbufos Concentration (ppm) Combination Surfactant With C2: 9.5 ppm
[1]; N11 with N3, 5 ml portions (1000 ppm) of each, maximum 100 ppm
  Terbufos Concentration (ppm) Combination Surfactant With N3: 24 ppm
[2]; Association Polymer (no PVAc), Buffer pH = 5.6, 0.5 hour
  Terbufos Concentration (ppm), Time Release from Coated Seeds: 370 ppm
[2]; Association Polymer (no PVAc), Buffer pH = 5.6, 2 hours
  Terbufos Concentration (ppm), Time Release from Coated Seeds: 350 ppm
[2]; Association Polymer (no PVAc), Buffer pH = 5.6, 4 hours
  Terbufos Concentration (ppm), Time Release from Coated Seeds: 360 ppm
[2]; Association Polymer+PVAc, Buffer pH 5.6, 0.5 hour
  Terbufos Concentration (ppm), Time Release from Coated Seeds: 130 ppm
[2]; Association Polymer+PVAc, Buffer pH 5.6, 2 hours
  Terbufos Concentration (ppm), Time Release from Coated Seeds: 147 ppm
[2]; Association Polymer+PVAc, Buffer pH 5.6, 4 hours
  Terbufos Concentration (ppm), Time Release from Coated Seeds: 210 ppm
[2]; Association Polymer+PVAc, Buffer pH 5.6, 26 hours
  Terbufos Concentration (ppm), Time Release from Coated Seeds: 163 ppm
[2]; Association Polymer+PVAc, Buffer pH 5.6, 69.5 hours
  Terbufos Concentration (ppm), Time Release from Coated Seeds: 122 ppm
[2]; Association Polymer+PVAc, Buffer pH 8.3, 0.5 hour
  Terbufos Concentration (ppm), Time Release from Coated Seeds: 210 ppm
[2]; Association Polymer+PVAc, Buffer pH 8.3, 2 hours
  Terbufos Concentration (ppm), Time Release from Coated Seeds: 240 ppm
[2]; Association Polymer+PVAc, Buffer pH 8.3, 4 hours
  Terbufos Concentration (ppm), Time Release from Coated Seeds: 260 ppm
[2]; Association Polymer+PVAc, Buffer pH=3.3, 2 hours
  Terbufos Concentration (ppm), Time Release from Coated Seeds: 22 ppm
[2]; Association Polymer+PVAc, Buffer pH=3.3, 4 hours
  Terbufos Concentration (ppm), Time Release from Coated Seeds: 7.6 ppm
[2]; PVAc, Buffer pH=5.6, 4 hours
  Terbufos Concentration (ppm), Time Release from Coated Seeds: 1.9 ppm
[2]; PVAc, Buffer pH=5.6, 26 hours
  Terbufos Concentration (ppm), Time Release from Coated Seeds: 2.4 ppm
[3]; 575 ppm surfactant a) (N3, Triton N101)
  terbufos concentration: 64 ppm
[3]; 603 ppm surfactant portion b) (half of 1206 ppm 1:1 association polymer PA 5000:N3)
  terbufos concentration: 52 ppm
[4]; Granule, 0.1 g m⁻¹
  Ratings for corn rootworm damage: 2.2
[4]; seed treatment Association Polymer, 10 g/kg
  Ratings for corn rootworm damage: 2.6
[4]; seed treatment PVAc/PVAl, 10 g/kg
  Ratings for corn rootworm damage: 3.1
[4]; seed treatment PVAc/PVAl, 30 g/kg
  Ratings for corn rootworm damage: 2.8
[5]; 5 µl terbufos in 200 µl of Cl, C2, C4, C7, Al, N1, N4, N5, N6, N8, N12, N24, N25, N26, PEG 200 or PEG 400
  solubility in neat surfactants (no water present) or polyethylene glycols, judged by eye: Soluble
[5]; 5 µl terbufos in 200 µl of anionic A2, A3, A5 or A6
  solubility in neat surfactants (no water present), judged by eye: Insoluble
[6]; Buffer = 10 ml (Triton = 1000 ppm), 0.5 hours
  Terbufos Concentration (ppm): 61 ppm
[6]; Buffer = 10 ml (Triton = 1000 ppm), 1 hour
  Terbufos Concentration (ppm): 86 ppm
[6]; Buffer = 10 ml (Triton = 1000 ppm), 2 hours
  Terbufos Concentration (ppm): 104 ppm
[6]; Buffer = 10 ml (Triton = 1000 ppm), 3 hours
  Terbufos Concentration (ppm): 81 ppm
[6]; Buffer = 10 ml (Triton = 1000 ppm), 4 hours
  Terbufos Concentration (ppm): 60 ppm
[6]; Buffer = 10 ml (Triton = 1000 ppm), 5 hours
  Terbufos Concentration (ppm): 60 ppm
[6]; Buffer = 20 ml (Triton = 500 ppm), 0.5 hours
  Terbufos Concentration (ppm): 53 ppm
[6]; Buffer = 20 ml (Triton = 500 ppm), 1 hour
  Terbufos Concentration (ppm): 39 ppm
[6]; Buffer = 20 ml (Triton = 500 ppm), 3 hours
  Terbufos Concentration (ppm): 34 ppm
[6]; Buffer = 20 ml (Triton = 500 ppm), 4 hours
  Terbufos Concentration (ppm): 44 ppm
[6]; Buffer = 20 ml (Triton = 500 ppm), 5 hours
  Terbufos Concentration (ppm): 51 ppm
[6]; Buffer = 20 ml (Triton = 500 ppm), 22 hours
  Terbufos Concentration (ppm): 29 ppm
[6]; Buffer = 100 ml (Triton = 100 ppm), 0.25 hours
  Terbufos Concentration (ppm): 2.7 ppm
[6]; Buffer = 100 ml (Triton = 100 ppm), 0.5 hours
  Terbufos Concentration (ppm): 3.2 ppm
[6]; Buffer = 100 ml (Triton = 100 ppm), 1 hour
  Terbufos Concentration (ppm): 3.3 ppm
[6]; Buffer = 100 ml (Triton = 100 ppm), 1.5 hours
  Terbufos Concentration (ppm): 4.3 ppm
[6]; Buffer = 100 ml (Triton = 100 ppm), 2 hours
  Terbufos Concentration (ppm): 4.7 ppm
[6]; Buffer = 100 ml (Triton = 100 ppm), 3 hours
  Terbufos Concentration (ppm): 4.6 ppm
[6]; Buffer = 100 ml (Triton = 100 ppm), 4 hours
  Terbufos Concentration (ppm): 5.9 ppm
[6]; Buffer = 100 ml (Triton = 100 ppm), 5 hours
  Terbufos Concentration (ppm): 5.5 ppm
[6]; Buffer = 100 ml (Triton = 100 ppm), 6 hours
  Terbufos Concentration (ppm): 5.1 ppm
[6]; Buffer = 100 ml (Triton = 100 ppm), 7 hours
  Terbufos Concentration (ppm): 6.7 ppm
[6]; Buffer = 100 ml (Triton = 100 ppm), 28 hours
  Terbufos Concentration (ppm): 7.5 ppm

## CCOP(=S)(OCC)Oc1nc(Cl)n(C(C)C)n1 [isazofos]
[7]
  Released Active Substance in % After 4 Hours Association Polymer 17.1: 80.8%
  Released Active Substance in % After 4 Hours Standard Polymer 18.1: 63.5%
[8]; isazophos in H₂O
  Solubility (ppm): 62 ppm
[8]; isazophos, 1000 ppm A1, HLB ∼30
  Solubility (ppm): 84 ppm
[8]; isazophos, 1000 ppm A2, HLB ∼30
  Solubility (ppm): 58 ppm
[8]; isazophos, 1000 ppm A4, HLB ∼30
  Solubility (ppm): 180 ppm
[8]; isazophos, 1000 ppm A5, HLB ∼30
  Solubility (ppm): 11 ppm
[8]; isazophos, 1000 ppm AM1
  Solubility (ppm): 98 ppm
[8]; isazophos, 1000 ppm N3, HLB 13.4
  Solubility (ppm): 260 ppm
[8]; isazophos, 1000 ppm N9, HLB 22
  Solubility (ppm): 130 ppm
[8]; isazophos, 1000 ppm N11, HLB 29
  Solubility (ppm): 92 ppm
[8]; isazophos, 1000 ppm N18, HLB 17.3
  Solubility (ppm): 130 ppm
[8]; isazophos, 1000 ppm N24, HLB 15.0
  Solubility (ppm): 170 ppm
[9]
  % a.i. Analyzed in "Traditional" Coats Kernels: 68.2%
  % a.i. Analyzed in "Traditional" Coats Leachate: < 0.5%
  % a.i. Analyzed in "Traditional" Coats Sand: 22.9%
  % a.i. Analyzed in Association Polymer Kernels: 30.1%
  % a.i. Analyzed in Association Polymer Leachate: 34.9%
  % a.i. Analyzed in Association Polymer Sand: 39.7%
[10]
  Sw in ppm: 150 ppm
